Laboratory results as given in patent publication US20150203474A1, “SOLID FORMS COMPRISING INHIBITORS OF HCV NS5A, COMPOSITIONS THEREOF, AND USES THEREWITH” (PRESIDIO PHARMACEUTICALS ,INC., priority 2012, published 2015).
Read-outs that look alike come from different tables or passages of the source.

Legend:
[1] = Moisture sorption/desorption (DVS) of Compound I Form A; type: physicochemical; settings: 25° C.
Experimental: Dynamic vapor sorption/desorption (DVS) data were collected on a VTI SGA-100 Vapor Sorption Analyzer. NaCl and PVP were used as calibration standards. Samples were not dried prior to analysis. Adsorption and desorption data were collected over a range from 5 to 95% RH at 10% RH increments under a nitrogen purge. The equilibrium criterion used for analysis was less than 0.0100% weight change in 5 minutes with a maximum equilibration time of 3 hours. Data were not corrected for the initial moisture content of the samples. Moisture sorption/desorption data were collected for the sample on a VTI […] Vapor Sorption Analyzer. NaCl and PVP were used as calibration standards. Samples were vacuum dried prior to analysis. Sorption and desorption data were collected over a range from 5 to 95% RH at 10% RH increments under a nitrogen purge. The equilibrium criterion used for analysis was less than 0.0100% weight change in 5 minutes with a maximum equilibration time of 3 hours. Data were not corrected for the initial moisture content of the samples. FIG. 15 illustrates the graphed Weight % vs. Relative Humidity.

[2] = PK study of Form A of Compound I in dogs; type: in vivo; settings: PO dose of 75 mg/kg
Experimental: The pharmacokinetics (PK) properties of Form A of Compound I and Form I of Compound II were determined in a series of comprehensive experiments in preclinical species including Sprague-Dawley rats, beagle dogs, cynomolgus monkeys. In those studies, the Form A crystalline salt of Compound I (and Form I crystalline salt of Compound II) was formulated in saline, 0.5% MC in saline or other commonly used suitable formulation vehicles to give a clear solution or as a suspension or a paste depending on the concentration intended to reach and the choice of vehicles. Dosing was by oral gavage. Blood samples were drawn and placed into individual tube containing K2EDTA. Blood samples were put on ice and centrifuged (2000 g for 5 minutes at 4° C.) to obtain plasma within 15 minutes after collection. Plasma samples were stored at approximately −80° C. freezer until analysis. For most of these analyses, Compound I (and Compound II) and the internal standard (IS) were extracted from rat, monkey or dog plasma by protein precipitation, and the extract was evaporated, reconstituted and analyzed using HPLC with tandem mass spectrometric detection (HPLC-MS/MS), see examples for further details. Calibration was accomplished by weighted linear regression of the ratio of the peak area of analyte to that of the added internal standard (IS). For the validated assay in rat and monkey EDTA plasma, the Lower Limit of Quantitation (LLOQ) for both compound 1 and 2 was 5.00 ng/mL, and the assay was linear from 5.00-1,000 ng/mL. PK parameters were calculated by non-compartmental analysis using WinNonlin (versions 4.1 through 6.1). Non-naïve Beagle Dog, 8.0-9.5 kg were used in the study. The dosing solution was prepared by dissolving 1.90 g of Form A of Compound I (1.67 g free base equivalent) in 222.237 mL of 0.5% MC and vortexed for 20 min, sonicated for 2 min to obtain a colorless clear solution. The animals were restrained manually, and approx. 0.6-1 mL blood/time point was collected from cephalic or saphenous veins into pre-cooled EDTA tubes. Blood samples were put on ice and centrifuged at 4° C. to obtain plasma within 30 minutes of sample collection. […] 5 μL of the supernatant was injected for LC-MS/MS analysis. • For dilution samples: • An aliquot of 10 μL plasma sample was added with 90 μL blank Beagle dog plasma. The dilution factor was 10. An aliquot of 30 μL dilution plasma was added with 200 μL IS in ACN (testosterone as IS, 100.0 ng/mL), the mixture was vortexed for 2 min and centrifuged at 12000 rpm for 5 min. 5 μL of the supernatant was injected for LC-MS/MS analysis.

[3] = with respect to the initial sample weight
[4] = beagle, dog, plasma, po, 75 mg/kg, Dog #1, read-out: plasma concentration
[5] = beagle, dog, plasma, po, 75 mg/kg, Dog #2, read-out: plasma concentration
[6] = beagle, dog, plasma, po, 75 mg/kg, Mean, read-out: mean plasma concentration

## COC(=O)N[C@H](C(=O)N1CCC[C@H]1c1ncc(-c2ccc3cc(-c4ccc5nc([C@@H]6CCCN6C(=O)[C@@H](NC(=O)OC)C(C)C)[nH]c5c4)ccc3c2)[nH]1)C(C)C [Form A of Compound I]
[1]; desorption, Samp RH 5.17 %
  Weight % chg: 0.673%
[1]; desorption, Samp RH 14.73 %
  Weight % chg: 2.010%
[1]; desorption, Samp RH 25.12 %
  Weight % chg: 3.025%
[1]; desorption, Samp RH 35.13 %
  Weight % chg: 3.870%
[1]; desorption, Samp RH 44.99 %
  Weight % chg: 4.590%
[1]; desorption, Samp RH 55.17 %
  Weight % chg: 5.352%
[1]; desorption, Samp RH 65.08 %
  Weight % chg: 5.993%
[1]; desorption, Samp RH 75.27 %
  Weight % chg: 6.741%
[1]; desorption, Samp RH 85.24 %
  Weight % chg: 7.855%
[1]; sorption, Samp RH 5.09 %
  Weight % chg: −0.187%
[1]; sorption, Samp RH 14.73 %
  Weight % chg: 0.065%
[1]; sorption, Samp RH 24.93 %
  Weight % chg: 0.303%
[1]; sorption, Samp RH 34.87 %
  Weight % chg: 0.521%
[1]; sorption, Samp RH 44.91 %
  Weight % chg: 0.780%
[1]; sorption, Samp RH 54.80 %
  Weight % chg: 1.082%
[1]; sorption, Samp RH 64.95 %
  Weight % chg: 1.458%
[1]; sorption, Samp RH 74.71 %
  Weight % chg: 1.868%
[1]; sorption, Samp RH 84.57 %
  Weight % chg: 2.502%
[1]; sorption, Samp RH 94.86 %
  Weight % chg: 10.824%
[1]; [3]
  % wt change upon equilibration at 5% RH: −0.187 % wt
  % wt gain from 5%-85% RH: 2.689 % wt
  % wt gain from 85%-95% RH: 8.322 % wt
  % wt lost from 95%-5% RH: 10.151 % wt
[2]; Beagle Dog, 0.083 hr, Dog #1
  plasma concentration: BQL
[2]; beagle, dog, plasma, po, 75 mg/kg, 0.083 hr, Dog #2, read-out: plasma concentration
  concentration at 0.083 hr: 5.92 ng/mL
[2]; beagle, dog, plasma, po, 75 mg/kg, 0.083 hr, Mean, read-out: mean plasma concentration
  concentration at 0.083 hr: 5.92 ng/mL
[2]; [4]
  concentration at 0.25 h: 267 ng/mL
  concentration at 1 hr: 1590 ng/mL
  concentration at 2 hr: 2980 ng/mL
  concentration at 4 hr: 3080 ng/mL
  concentration at 6 hr: 3590 ng/mL
  concentration at 8 hr: 3500 ng/mL
  concentration at 24 hr: 244 ng/mL
[2]; [5]
  concentration at 0.25 h: 374 ng/mL
  concentration at 1 hr: 2050 ng/mL
  concentration at 2 hr: 2400 ng/mL
  concentration at 4 hr: 1540 ng/mL
  concentration at 6 hr: 1320 ng/mL
  concentration at 8 hr: 1040 ng/mL
  concentration at 24 hr: 2160 ng/mL
[2]; [6]
  concentration at 0.25 h: 320 ng/mL
  concentration at 1 hr: 1820 ng/mL
  concentration at 2 hr: 2690 ng/mL
  concentration at 4 hr: 2310 ng/mL
  concentration at 6 hr: 2450 ng/mL
  concentration at 8 hr: 2270 ng/mL
  concentration at 24 hr: 1200 ng/mL
[2]; beagle, dog, plasma, po, 75 mg/kg, 0.5 hr, Dog #1
  concentration at 0.5 h: 1090 ng/mL
[2]; beagle, dog, plasma, po, 75 mg/kg, 0.5 hr, Dog #2, read-out: plasma concentration
  concentration at 0.5 hr: 952 ng/mL
[2]; beagle, dog, plasma, po, 75 mg/kg, 0.5 hr, Mean, read-out: mean plasma concentration
  concentration at 0.5 hr: 1020 ng/mL
